Assay results taken from PMC11956017, “Design of Benzyl-triazolopyrimidine-Based NADPH Oxidase Inhibitors Leads to the Discovery of a Potent Dual Covalent NOX2/MAOB Inhibitor” (Journal of Medicinal Chemistry, 2025).
Where “and” joins values, the source holds several entries; their conditions need not be identical. Equal values may be shown once. Entries after “also recorded” stand apart in the source; their conditions may differ.

Key:
BV2 cells = test: ROS detection with CellROX Deep Red in BV2 cells; format: cell-based, murine; conditions: 10 μM, LPS/IFN-γ stimulation, 48 h
Protocol: BV2 murine microglial cells were cultured in DMEM supplemented with 10% heat-inactivated FBS, 100 IU/mL penicillin G, […] streptomycin, and […] amphotericin B and grown at 37 °C in 5% CO2 and a humidified atmosphere. […] After 30 min, LPS 100 ng/mL and IFN-γ 20 ng/mL were added to the medium for an additional 48 h. After treatment, BV2 cells were incubated with a CellROX Deep Red reagent (cat. no. C10422) at 5 μM and incubated for 30 min at 37 °C as indicated by the manufacturer protocol. ROS levels were measured by a spectrofluorometer, taking as 100% the median fluorescence intensity of cells treated with the vehicle.

human myoglobin = biological target: T1, human myoglobin (Homo sapiens, UniProt P02144); test: Native mass spectrometry of myoglobin reactivity; format: binding; conditions: myoglobin 1 µM, compound 5 µM and 20 µM, pH 7.5, 30 minutes
T1 construct: purchased Sigma Aldrich M6036; host or cells: human cardiac
T1 sequence (P02144 1-154): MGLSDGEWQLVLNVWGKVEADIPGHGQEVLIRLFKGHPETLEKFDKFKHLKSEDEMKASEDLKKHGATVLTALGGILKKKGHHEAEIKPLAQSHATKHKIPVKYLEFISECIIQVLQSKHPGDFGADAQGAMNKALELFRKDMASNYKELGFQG
Protocol: (§1) Protein samples were buffer-exchanged into 200 mM ammonium acetate (pH 7.5) through dialysis prior to native MS analyses. These samples were directly introduced into the mass spectrometer using gold-coated capillary needles prepared in-house.[63] Data were collected on a Q Exactive UHMR hybrid quadrupole-Orbitrap mass spectrometer (Thermo Fisher) with positive polarity. The instrument parameters used for MS spectra collection were the following: capillary voltage, 1.2 kV; scan range from 1000 to 20,000 m/z; HCD collision energy, 0–100 V; source fragmentation, 0 V; in-source trapping, 0 V. The ion transfer optics was set as follows: injection flatapole, 5 V; interflatapole lens, 4 V; bent flatapole, 2 V; transfer multipole, 0 V. The resolution of the instrument was 17,500 at m/z = 200 (transient time of 64 ms), the nitrogen pressure in the HCD cell was maintained at approximately 4 × 10^–10 mbar, and the source temperature was kept at 100 °C. The noise level was set at 3 rather than the default value of 4.64. Calibration of the instruments was performed using 10 mg/mL solution of cesium iodide in water. Data were analyzed using Xcalibur 3.0 (Thermo Scientific), NaViA,[64] and UniDec software packages.[65]

csNOX5 dehydrogenase = test: Intact protein mass spectrometry of csNOX5 dehydrogenase; format: binding, Cylindrospermum stagnale
Protocol: Approximately 1 mg mL^-1 protein was incubated with 300 μM FAD and 1 mM 9a at 4 °C for 1 h. A negative control reaction was performed by adding an equal volume of DMSO. Protein was denatured by adding 1% (v/v) formic acid. Chromatographic separation and mass spectrometry analysis were carried out as previously reported.[10] Analyses were carried out by ESI-qTOF-HRMS on an […] qTOF system (Sciex) embedding a Twin Sprayer ESI probe and coupled with an ExcionLC system (Sciex) controlled by SciexOS software v. 3.0.0. The injection volume was 10 μL (10 μg), and chromatographic separation was carried out with a bioZen WidePore C4 column (a 100 mm length, a 2.1 mm diameter, and a 2.6 μm particle size; Phenomenex).

NOX2 [1] = biological target: T2, NOX2 (Homo sapiens, UniProt P04839); test: NOX2 inhibition upon preactivation with cytosolic partners, washout, cytochrome c reduction; format: biochemical; parameters: NOX2 was expressed as native protein in X-CGD PLB-985 cells transduced with the RD114 pseudotyped MFGS-NOX2 vector; expressed in transfected cells; host or cells: X-CGD PLB-985 cells transduced with MFGS-NOX2; isolated membranes; Cytosolic proteins made in E. coli; conditions: 1 mM compound, 60 min, with or without p47phox/p67phox/Rac1, washout, fresh activators
Protocol: More in detail, two different mixtures were prepared simultaneously: a “nonpreactivated NOX2” mixture in the absence of cytosolic partners and a “preactivated NOX2” mixture in the presence of cytosolic partners. NOX2-containing membranes (3.9 mg/mL) were added to a sodium phosphate buffer (65 mM, pH 7.0), 50 μM FAD, and 130 μM LiDS, in the presence or absence of 160 nM p67^phox, p47^phox, and Rac1 Q61L in a final volume of 20 μL. Both mixes were incubated with DMSO (vehicle) or 1 mM of the tested compound for 60 min at 25 °C. The mixtures were then centrifuged (20,000g for 10 min) at 4 °C to gently remove the excess of the inhibitor and, if present, of the activators. The supernatants were discarded to eliminate the excess of the nonbound compound, and the pellets were resuspended in the same volume of the fresh buffer. Subsequently, the resuspended pellets were loaded into a spectrophotometric cuvette at a final concentration of 0.39 mg/mL and incubated with fresh cytosolic activators (160 nM), LiDS (130 μM), and cytochrome c (200 μM) for 10 min at 25 °C. […] The reaction was then initiated with 240 μM NADPH and monitored at 550 nm with a Cary 100 UV–vis spectrophotometer (Varian).

bovine albumin = biological target: T3, bovine albumin (Bos taurus, UniProt P02769); test: Native mass spectrometry of BSA reactivity; format: binding; conditions: BSA 1 µM, compound 5 µM and 20 µM, pH 7.5, 30 minutes
T3 construct: Bovine serum albumin (BSA, Sigma Aldrich, A7030); purchased Sigma Aldrich A7030; host or cells: bovine serum
T3 sequence (P02769 25-607): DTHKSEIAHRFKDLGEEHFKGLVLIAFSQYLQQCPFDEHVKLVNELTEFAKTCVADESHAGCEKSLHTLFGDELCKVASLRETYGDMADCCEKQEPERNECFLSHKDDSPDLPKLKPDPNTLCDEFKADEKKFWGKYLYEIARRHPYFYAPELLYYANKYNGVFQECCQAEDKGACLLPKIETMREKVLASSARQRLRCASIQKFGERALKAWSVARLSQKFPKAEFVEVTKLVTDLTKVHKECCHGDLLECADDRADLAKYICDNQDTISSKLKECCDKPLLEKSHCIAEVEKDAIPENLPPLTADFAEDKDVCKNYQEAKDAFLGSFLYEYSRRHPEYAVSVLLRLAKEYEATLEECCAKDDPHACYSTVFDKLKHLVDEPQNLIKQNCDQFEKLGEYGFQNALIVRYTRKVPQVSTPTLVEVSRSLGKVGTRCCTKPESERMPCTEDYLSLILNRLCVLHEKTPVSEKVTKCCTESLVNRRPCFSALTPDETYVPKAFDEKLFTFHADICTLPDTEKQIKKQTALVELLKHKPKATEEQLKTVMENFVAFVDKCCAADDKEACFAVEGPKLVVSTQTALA
Protocol: as §1

NOX2 [2] = biological target: T2, NOX2; test: Human NOX2 isolated membranes, cytochrome c assay; format: biochemical; parameters: NOX2 was expressed as native protein in X-CGD PLB-985 cells transduced with the RD114 pseudotyped MFGS-NOX2 vector; expressed in transfected cells; host or cells: X-CGD PLB-985 cells transduced with MFGS-NOX2; isolated membranes; Cytosolic proteins made in E. coli; conditions: membrane-embedded NOX2; n = 1; read-out: IC50 NOX2 measured with the cytochrome c assay
Protocol: The strong activity of NOX2 enabled the use of the peroxide-independent MCLA and cytochrome c assays that probe superoxide formation. IC50 determinations were performed as described, with the same aforementioned modifications for covalent inhibition. Briefly, 20 μg of NOX2-p22^phox membranes was added to a reaction mix with a 65 mM sodium phosphate buffer (pH 7.0), 0.5 μM FAD, 130 μM LiDS, 160 nM p67^phox, p47^phox, Rac1 Q61L, and 1 μM MCLA or 200 μM bovine cytochrome c. The estimated final protein concentration based on the heme’s absorbance was 60 nM. Compounds were incubated for 1 h at 25 °C, at varying concentrations. The reaction started by adding 240 μM NADPH, and measurements were taken by using a GloMax plate reader (Promega; MCLA) or a Cary 100 UV–vis spectrophotometer (Varian; cytochrome c).

## C#CCN(C)Cc1ccc(Cn2nnc3c(Sc4nc5ccccc5o4)ncnc32)cc1 [Compound 9a, N-(4-((7-(Benzo[d]oxazol-2-ylthio)-3H-[1,2,3]triazolo[4,5-d]pyrimidin-3-yl)methyl)benzyl)-N-methylprop-2-yn-1-amine]
BV2 cells
  ROS levels in BV2 cells: decrease the ROS levels; also recorded: strongest ROS-dumping activity
Human myoglobin
  adduct formation with myoglobin: no adduct formation was detected; also recorded: did not bind
csNOX5 dehydrogenase; 1 mM inhibitor, 4 °C, 1 h, vs DMSO-treated protein
  increase in molecular weight of csNOX5 dehydrogenase after reaction: 290 Da and 290.3 Da
csNOX5 dehydrogenase; intact protein ESI-qTOF-HRMS
  covalent binding to csNOX5 dehydrogenase active-site cysteine: covalent binding
NOX2 [1]
  retention of inhibitor by NOX2 after washout, resting vs activated state: retained only by the activated
Bovine albumin
  adduct formation with bovine serum albumin: no adduct; also recorded: did not bind
NOX2 [2]
  IC50: 0.77 µM
